Data: patent US20090068143A1, “ORALLY EFFECTIVE C[…]” (priority 2005, published 2009)

What was measured:
[1] = tested on: Taxol® induced neuropathic pain; experiment: Taxol® induced neuropathic pain; assay type: in vivo, Sprague Dawley rats
Procedure: Male Sprague Dawley rats (average body weight 150-200 g, Harlan, Israel) were administered i.p. with 6 mg/kg Taxol® (Bristol Myers Squibb, USA) every other day for 9 days. On day 13, baseline pain threshold was measured. One hour later, the animals were administered with 5 ml/kg i.p. of vehicle (PB) only and pain threshold was re-established. After an additional hour animals were treated with various doses of compound 18F ranging from 0.5 mg/kg up to 10 mg/kg administered i.p. Morphine at 5 mg/kg i.p. and gabapentin at 100 mg/kg i.p served as positive controls. Each treatment group comprised at least eight animals. One hour post drug administration pain threshold was monitored using thermal and mechanical stimuli as previously described. At the end of the study, rats were euthanized with sodium pentobarbitone 100 mg/kg i.p. Sample rats were then transfused with saline and heparinized 4% formaldehyde solution. The L4-L5 area of the spinal cord and the sciatic nerve were taken for histopathology assessment.
The time latencies for thermal hyperalgesia, and force needed to induce pain of the different treatment groups are compared, using one way ANOVA (analysis of variance), followed by Duncan's post hoc test. A p<0.05 value was considered statistically significant and is indicated on the figure by an asterisk over the relevant treatment group.

inflammatory pain = experiment: Inflammatory pain and paw edema, λ carrageenan; assay type: in vivo, Sprague Dawley rats; details: for ΔLT between hind paws, thermal stimulus: 3 hours; for reduction of delta force between paws, tactile stimulus: vehicle 31 g
Procedure: Male Sprague Dawley rats (average body weight 200 g, Harlan, Israel) were transiently sedated by placement on dry ice for the duration of the injections. Rats were injected subcutaneously, in the subplantar region of one (right) paw with 0.1 ml of 2% w/v λ Carrageenan in sterile saline. […] Test compounds were administered p.o. by oral gavage immediately after the carrageenan injection as pretreatment. Vehicle (PB) treated animals were used as controls. Before induction of inflammatory pain and three hours after injection, the animals reactions to pain stimuli were tested in two systems. The first stimulus was thermal and assessed by the Plantar Test according to Hargreaves, using Ugo Basile Model 7370. The scale was set to an intensity of 50 arbitrary units. The latency time till the animal lift a paw as a reaction to the thermal stimulus was recorded for both the inflamed and non-inflamed hind paws. The second stimulus was mechanical (tactile) and assessed using a Dynamic Plantar Sesthesiomether (Ugo Basile Model 73400-002). […] Finally, the impact on paw edema was assessed. Paw thickness is measured using a dial thickness gauge (Spring-dial, constant low pressure gauge, Mitutoyo, TG/L-1, 0.00 mm) and paw volume is measured using a plethysmometer (model #7150, Ugo Basile, Italy). At the end of the study, animals were euthanized with an i.p. injection of 100 mg/kg pentobarbitone.
The results are measured as the differences between the two hind paws at time 0 and 3 hours both as ALT, for the latency time in the thermal part of the study, and as ΔForce, for the mechanical part of the study. The paw volume is expressed as percent from vehicle treated animals. Results are expressed as mean±SEM for each treatment group and the differences among those groups are analyzed by analysis of variance (ANOVA) followed by post-hoc Tukey's test. A value of p<0.05 was considered to be statistically significant and is indicated on the figure by an asterisk over the relevant treatment group.

iNOS = iNOS protein expression in activated macrophages (western blot); assay type: cell-based, mouse; details: 1, 5 and 10 μM, 24 hrs after LPS stimulation
Procedure: RAW 264.7 macrophages, a mouse cell line (ATCC # TIB 71), were grown in Dulbecco's modified Eagle's medium (DMEM) with 4 mM L-glutamine adjusted to contain 1.5 g/L sodium bicarbonate, 4.5 g/L glucose, and 10% heat inactivated fetal bovine serum. Cells were grown in tissue culture flasks and seeded at appropriate density into 6 wells tissue culture plates. Four million Raw cells in half a milliliter were stimulated with 1 μg/ml Lipopolysaccharide E. coli 055:B5 (DIFCO Laboratories). The mouse macrophages were pre-treated for one hour with controls or 10 μM of test compounds, and later on activated with LPS. RNA samples were extracted from the cells 3 hrs after activation and iNOS gene expression levels were analyzed by real-time RT-PCR as previously described. For western blot analysis, compounds were tested at 1, 5 and 10 μM and cells were harvested 24 hrs after LPS stimulation. Supernatant were collected and NO secretion was analyzed using ELISA. […]
To assess correlation between gene expression and protein expression, protein extracts were prepared from the various treated activated macrophages. […] Primary antibodies against cyclophilin A were used as control (Upstate, Cat# 07-313), and the amount of iNOS was assessed using NOS2 (C11) Santa Cruz antibodies (Cat# SC-7271) were hybridized for 2 hours at room temperature. […]

CB2 receptor = CB2 receptor (Homo sapiens, UniProt P34972); experiment: CB2 binding assay
Chain of CB2 receptor (P34972 whole entry): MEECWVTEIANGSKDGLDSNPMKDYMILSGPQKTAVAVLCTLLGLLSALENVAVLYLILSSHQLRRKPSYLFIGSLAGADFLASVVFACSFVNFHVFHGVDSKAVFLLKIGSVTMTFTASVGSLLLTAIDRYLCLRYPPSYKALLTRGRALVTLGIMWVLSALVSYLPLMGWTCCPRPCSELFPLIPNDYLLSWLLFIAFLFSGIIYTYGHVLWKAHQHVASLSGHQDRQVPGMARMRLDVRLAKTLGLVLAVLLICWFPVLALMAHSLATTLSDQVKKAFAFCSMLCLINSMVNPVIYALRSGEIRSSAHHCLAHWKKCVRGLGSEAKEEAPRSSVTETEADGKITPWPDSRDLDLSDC

`CCCCCCC(C)(C)c1cc(O)c([C@H]2CC(=O)C3CC2C3(C)C)c(OC(=O)/C=C/C(=O)O)c1` (single isomer, unassigned; (-)) [Compound 18F, (−)-4-{4-[1,1-Dimethylheptyl]-2-fumarate-6-hydroxy-phenyl}-6,6-dimethyl-bicyclo[3.1.1]heptan-2-one] was tested, and the “effect on pain threshold” value ([1]; 10 mg/kg i.p., baseline 15 gm, untreated 5 gm) was “increased the pain threshold back to pre-Taxol® baseline”, the “effect on pain threshold versus vehicle” value ([1]; 1, 5 and 10 mg/kg i.p.) was “statistically significant from the vehicle treated animals” and the “decrease in paw volume” value (inflammatory pain; 10 mg/kg p.o.) was 6%. For the same compound, the “percent reduction of delta force, tactile stimulus” value (inflammatory pain; 10 mg/kg p.o.) was 23%, the “reduction of ΔLT, thermal stimulus” value (inflammatory pain; 10 mg/kg p.o.) was “no reduction” and the “ΔLT between hind paws, thermal stimulus” value (inflammatory pain; 10 mg/kg p.o., vehicle about 7.5) was 7.5 s. The “decrease in paw volume” value (inflammatory pain; 20 mg/kg p.o.) was 18%, the “paw volume, percent of vehicle” value (inflammatory pain; 20 mg/kg p.o.) was 82% and the “reduction of ΔLT, thermal stimulus” value (inflammatory pain; 20 mg/kg p.o.) was 69%. For the same compound, the “ΔLT between hind paws, thermal stimulus” value (inflammatory pain; 20 mg/kg p.o.) was 2.3 s, the “reduction of delta force between paws, tactile stimulus” value (inflammatory pain; 20 mg/kg p.o.) was 18 g and the “reduction of ΔLT, thermal stimulus” value (inflammatory pain; 30 mg/kg p.o.) was 88%. For the same compound, the “ΔLT between hind paws, thermal stimulus” value (inflammatory pain; 30 mg/kg p.o.) was 0.9 s, the “decrease in paw volume” value (inflammatory pain; 30 mg/kg p.o., significant) was 52% and the “reduction of delta force between paws, tactile stimulus” value (inflammatory pain; 30 mg/kg p.o.) was 19 g. For the same compound, the “percent reduction of delta force, tactile stimulus” value (inflammatory pain; 20 and 30 mg/kg p.o.) was “about 60%”, the “reduction in Δforce, mechanical stimulus” value (inflammatory pain; single dose of 20 mg/kg p.o.) was 58% and the “iNOS protein band (western blot)” value (iNOS) was “clear dose dependent disappearance of iNOS protein band”. For the same compound, the IC50 (CB2 receptor) was 9 nM.
